US20220233472A1, “VETERINARY BROMHEXINE HYDROCHLORIDE SOLUBLE POWDER, PREPARATION METHOD AND USE THEREOF” (Qingdao Agricultural University, priority 2021, published 2022)
Where a name gives a salt, the structure may show the parent alone.

Experiment: Pharmacokinetic tests of bromhexine hydrochloride soluble powder in chickens
Assay type: in vivo
Details: oral, soluble powder at 50, 150 and 250 mg/kg·bw
Method: Pharmacokinetic tests of bromhexine hydrochloride soluble powder in chickens were carried out based on three administration dosages of 50 mg/kg·bw, 150 mg/kg·bw and 250 mg/kg·bw.

- pharmacokinetic characteristic: linear pharmacokinetic characteristic
SMILES: CN(Cc1cc(Br)cc(Br)c1N)C1CCCCC1 [bromhexine, Bromhexine hydrochloride]
